Results published in article PMC8911803, “The Antiprotozoal Activity of Papua New Guinea Propolis and Its Triterpenes” (Molecules, 2022).
Values joined by “and” are separate entries in the source; they are usually repeats but may differ in a detail not shown here. Identical values can stand only once. Like-named read-outs stand apart in the source and are kept apart here.

What was measured:
[1] = tested on: T. congolense IL3000; assay: Antiprotozoal assay, drug-sensitive T. congolense IL3000; format: cell-based, Trypanosoma congolense
[2] = tested on: T. congolense 6C3; assay: microbe, parasite or virus in culture; format: cell-based, Trypanosoma congolense; settings: for RF resistance factor: T. congolense 6C3 vs IL3000
[3] = tested on: T. b. brucei B48; assay: microbe, parasite or virus in culture; format: cell-based, Trypanosoma b. brucei; settings: for RF resistance factor / RF resistance factor (EC50 B48/EC50 WT): T. b. brucei B48 vs S427WT
Protocol: (§1) Alamar blue (resazurin) assays were used to obtain the EC50 values for PNG and its fractions in at least three independent determinations.
(§2) The extract and the purified compounds were cultured and tested against T. b. brucei, T. congolense and C. fasciculata as described previously. The T. b. brucei strains were a standard drug-sensitive lab strain, Lister 427 (wild-type) and the derived cell line B48 was developed from the wild-type by gene deletion of the drug transporter TbAT1 followed by in vitro adaptation to pentamidine, leading to the further loss of the gene encoding TbAQP2 [48], rendering it highly resistant to the diamidine and melaminophenyl arsenical classes of trypanocides. The T. congolense strains were the lab strain IL3000 and its diminazene-adapted clone 6C3 [29]. The C. fasciculata strain HS6 was a gift of Prof. Terry Smith (University of St Andrews, UK).

[4] = tested on: T. b. brucei S427WT; assay: Alamar blue (resazurin) assay, T. b. brucei s427 wild-type; format: cell-based, Trypanosoma b. brucei
Protocol: as §1, §2

[5] = tested on: U937 cells; assay: Cytotoxicity against U937 cells (resazurin); format: cell-based, human; settings: for EC50 / AVG EC50 U937 cells: n = 3; for SI, selectivity index relative to T. b. brucei WT: EC50(U937)/EC50(TbbWT): U937 vs T. b. brucei WT
Protocol: U937 cells (European Collection of Cell Cultures Cat. No. 85011440, supplied by Sigma Aldrich, Dorset, UK) were cultured as described previously. U937 cells were grown to log phase at 37 °C and harvested at a density of 1 × 10^5 cells/mL in a 96-well plate (TPP, Trasadingen, Switzerland). Aliquots of 100 µL/well of the cells were added and the plate was incubated for 24 h at 37 °C, 5% CO2, 100% humidity. A 2-fold serial dilution of the test compound was carried out in growth medium, in another 96-well plate, and 100 μL of each dilution was then transferred to the cultured cells using a multichannel pipette, followed by another incubation for 24 h. Resazurin dye was then added at a final concentration of 10% (v/v) and the plates were incubated for a further 24 h, after which fluorescence was measured using a Wallac Victor 2 microplate reader (λ Ex/Em: 560/590 nm). The compounds and fractions were tested in triplicate, and cell viability was expressed as a percentage of the drug-free control. The resulting data were analysed using GraphPad Prism 8 to obtain dose-response curves and corresponding mean inhibitory concentration (EC50) values.

[6] = tested on: T. b. brucei B48; assay: Drug sensitivity using cell count (growth curve) of T. b. brucei B48; format: cell-based, Trypanosoma b. brucei; settings: 1×, 2× and 4× EC50, 2 × 10^5 cells/mL, up to 48 h
[7] = tested on: C. fasciculata; assay: Antiprotozoal assay, C. fasciculata; format: cell-based, Crithidia fasciculata; settings: Table 9
[8] = Trypanosoma congolense, Table 7, purified compounds, n = 3, read-out: AVG EC50 T. congolense IL3000
[9] = Trypanosoma congolense, Table 7, purified compounds, n = 3
[10] = Trypanosoma brucei, read-out: AVG EC50 T. b. brucei B48, Table 5, purified compounds, n = 3
[11] = Trypanosoma brucei, Table 5, purified compounds, n = 3
[12] = Homo sapiens, U-937, Table 8, purified compounds
[13] = Table 7, purified compounds, n = 3
[14] = drug-resistant strain vs standard strain
[15] = Table 5, purified compounds, n = 3
[16] = Table 5, purified compounds, n = 3, read-out: AVG EC50 T. b. brucei B48

## C=C(C)[C@@H]1CC[C@]2(CO)CC[C@]3(C)[C@H](CC[C@@H]4[C@@]5(C)CC[C@H](O)C(C)(C)[C@@H]5CC[C@]43C)[C@@H]12 [Betulin, betulin]
[1]; [8]
  EC50: 21.5 µg/mL
[2]; Table 7
  RF resistance factor: 1.03
[2]; [9]
  EC50: 22.1 µg/mL and 49.9 µM
[3]; Table 5
  RF resistance factor: 0.84
[3]; [10]
  EC50: 22.3 µg/mL and 50.5 µM
[4]; [11]
  EC50: 26.6 µg/mL and 60.1 µM
[5]; [12]
  EC50: 55.8 µg/mL and 126 µM
[5]
  SI, selectivity index relative to T. b. brucei WT: EC50(U937)/EC50(TbbWT): 2.1

## C=C(C)[C@@H]1CC[C@]2(C(=O)O)CC[C@]3(C)[C@H](CC[C@@H]4[C@@]5(C)CC[C@H](O)C(C)(C)[C@@H]5CC[C@]43C)[C@@H]12 [Betulinic acid, betulinic acid]
[1]; [8]
  EC50: 17.2 µg/mL
[2]; Table 7
  RF resistance factor: 1.05
[2]; [9]
  EC50: 18.1 µg/mL
[3]; Table 5
  RF resistance factor: 0.81
[3]; [10]
  EC50: 19.6 µg/mL and 42.9 µM
[4]; [11]
  EC50: 24.2 µg/mL and 53.1 µM
[5]; [12]
  EC50: 51.7 µg/mL and 113 µM
[5]
  SI, selectivity index relative to T. b. brucei WT: EC50(U937)/EC50(TbbWT): 2.1

## N=C(N)c1ccc(/N=N/Nc2ccc(C(=N)N)cc2)cc1 [Diminazene, reference compound]
[1]; Trypanosoma congolense, read-out: AVG EC50 T. congolense IL3000, Table 6, diminazene control, footnote: EC50 in µM
  EC50: 0.26 µM
[1]; Trypanosoma congolense, read-out: AVG EC50 T. congolense IL3000, Table 7, purified compounds, n = 3
  EC50: 0.28 µM
[2]; Table 6
  RF resistance factor: 5.90
[2]; Table 7
  RF resistance factor: 5.5
[2]; Trypanosoma congolense, Table 6, diminazene control, footnote: EC50 in µM
  EC50: 1.54 µM
[2]; [9]
  EC50: 1.55 µM

## CC(C)(O)[C@@H]1CC[C@]2(CO)CC[C@]3(C)[C@H](CC[C@@H]4[C@@]5(C)CC[C@H](O)C(C)(C)[C@@H]5CC[C@]43C)[C@@H]12 [Hydroxybetulin, 20-hydroxybetulin]
[1]; Table 6, n = 3
  AVG EC50 T. congolense IL3000: 5.77 µg/mL
[1]; [13]
  AVG EC50 T. congolense IL3000: 5.77 µg/mL
[1]; Table 7, purified compounds, n = 3, listed as hydroxybetulin
  AVG EC50 T. congolense IL3000: 5.8 ± 1.3 µg/mL
[6]
  Effect on in vitro growth of T. b. brucei B48 (cell count over time): more trypanostatic effect
[6]; listed as 20-hydroxybetulin
  Effect on in vitro growth of T. b. brucei B48 (cell count over time): trypanostatic
[2]; Table 6
  RF resistance factor: 0.48
[2]; Table 6, diminazene-resistant, n = 3
  AVG EC50 T. congolense 6C3: 6.09 µg/mL
[2]; [13]
  AVG EC50 T. congolense 6C3: 2.77 µg/mL
  EC50: 6.09 µM
[2]; [14]
  fold activity against drug-resistant strain of T. congolense: > 2 fold
[3]; Table 3
  RF resistance factor (EC50 B48/EC50 WT): 0.47
[3]; Table 3, pentamidine-resistant, n = 3
  AVG EC50 T. b. brucei B48: 2.09 µg/mL
[3]; Table 5
  RF resistance factor: 0.47
[3]; [15]
  AVG EC50 T. b. brucei B48: 0.97 µg/mL
[3]; [16]
  EC50: 2.09 µM
[3]; [14]
  fold activity against drug-resistant strain of T. b. brucei: > 2 fold
[7]
  AVG EC50 C. fasciculata: 23.4 µg/mL
[4]; Table 3, n = 3
  AVG EC50 T. b. brucei S427WT: 2.04 µg/mL
[4]; [15]
  AVG EC50 T. b. brucei S427WT: 2.04 µg/mL
  EC50: 4.44 µM
[4]; Table 5, purified compounds, n = 3, listed as hydroxybetulin
  AVG EC50 T. b. brucei S427WT: 2.0 ± 0.1 µg/mL
[4]; relative to betulinic acid
  fold more active than betulinic acid against T. b. brucei: 15 fold
[5]; Table 4
  AVG EC50 U937 cells: 47.0 µg/mL
[5]; Table 8, purified compounds
  AVG EC50 U937 cells: 47.0 µg/mL
  EC50: 102 µM
[5]
  SI, selectivity index relative to T. b. brucei WT: EC50(U937)/EC50(TbbWT): 23.0
[5]; U937 vs WT T. congolense
  selectivity index against WT T. congolense: 8.1
[5]; U937 vs resistant T. brucei
  selectivity index against resistant T. brucei: 48.5
[5]; U937 vs resistant T. congolense
  selectivity index against resistant T. congolense: 17.0

## CC(CC/C=C(/CO)C(=O)O)C1CCC2(C)C3CCC4C(C)(C)C(O)CCC45CC35CCC12C (stereo not shown) [Hydroxymangiferolic acid, 27-hydroxyisomangiferolic acid]
[1]; [13]
  AVG EC50 T. congolense IL3000: 16.7 µg/mL
[1]; Table 7, purified compounds, n = 3, read-out: AVG EC50 T. congolense IL3000
  EC50: 35.3 µM
[2]; Table 7
  RF resistance factor: 0.94
[2]; [13]
  AVG EC50 T. congolense 6C3: 15.7 µg/mL
  EC50: 33.2 µM
[3]; Table 5
  RF resistance factor: 0.87
[3]; [15]
  AVG EC50 T. b. brucei B48: 11.8 µg/mL
[3]; [16]
  EC50: 25 µM
[4]; [15]
  AVG EC50 T. b. brucei S427WT: 13.6 µg/mL
  EC50: 28.8 µM
[5]; Table 8, purified compounds
  EC50: 260 µM
[5]
  SI, selectivity index relative to T. b. brucei WT: EC50(U937)/EC50(TbbWT): >7.4

## C[C@H]1[C@H](C)CC[C@]2(C(=O)O)CC[C@]3(C)C(=CC[C@@H]4[C@@]5(C)C[C@@H](O)[C@H](O)[C@@](C)(CO)[C@@H]5[C@H](O)C[C@]43C)[C@H]12 [Madecassic acid, madecassic acid]
[1]; [8]
  EC50: 22.6 µg/mL and 67.6 µM
[2]; Table 7
  RF resistance factor: 0.88
[2]; [9]
  EC50: 19.8 µg/mL and 59.1 µM
[3]; Table 5
  RF resistance factor: 0.88
[3]; [10]
  EC50: 16 µg/mL and 31.7 µM
[4]; [11]
  EC50: 18.1 µg/mL and 36 µM
[5]; [12]
  EC50: 90.7 µg/mL and 180 µM
[5]
  SI, selectivity index relative to T. b. brucei WT: EC50(U937)/EC50(TbbWT): 5.0

## N=C(N)c1ccc(OCCCCCOc2ccc(C(=N)N)cc2)cc1 [Pentamidine, pentamidine, reference compound]
[6]
  Effect on in vitro growth of T. b. brucei B48 (cell count over time): parasites were almost completely eliminated from the media after 32 h
[3]; Table 3
  RF resistance factor (EC50 B48/EC50 WT): 210
[3]; Table 3, listed as pentamidine
  RF resistance factor (EC50 B48/EC50 WT): 210.8
[3]; Table 5
  RF resistance factor: 145
[3]; Trypanosoma brucei, read-out: AVG EC50 T. b. brucei B48, Table 3, pentamidine control, footnote: values in µM
  EC50: 0.721 µM
[3]; [10]
  EC50: 0.62 µM
[4]; Trypanosoma brucei, Table 3, pentamidine control, footnote: values in µM
  EC50: 0.0034 µM
[4]; [11]
  EC50: 0.0043 µM
